# Patent US20230265094A1, “RIPK1 INHIBITORS AND METHODS OF USE” (Merck Sharp & Dohme LLC, priority 2020, published 2023)
# Counter-ions that a name gives are not always drawn.
# Target: T1, RIPK1 (Homo sapiens, UniProt Q13546)
# T1 construct: recombinant GST-RIPK1 kinase domain (residues 1-327) enzyme produced from baculovirus-transfected Sf21 cells; host or cells: baculovirus-transfected Sf21 insect cells
# T1 sequence (Q13546 1-327): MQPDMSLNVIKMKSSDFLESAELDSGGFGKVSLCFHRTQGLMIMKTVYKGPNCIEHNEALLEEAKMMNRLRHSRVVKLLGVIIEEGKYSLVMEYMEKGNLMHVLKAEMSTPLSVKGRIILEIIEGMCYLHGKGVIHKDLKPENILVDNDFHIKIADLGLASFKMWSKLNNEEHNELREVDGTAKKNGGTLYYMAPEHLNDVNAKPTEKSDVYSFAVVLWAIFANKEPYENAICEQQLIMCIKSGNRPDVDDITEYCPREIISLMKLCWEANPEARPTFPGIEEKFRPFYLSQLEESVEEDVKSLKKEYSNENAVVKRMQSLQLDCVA
# Experiment: RIPK1-ADP-Glo enzymatic assay
# Format: biochemical
# Settings: ADP-Glo luminescent ADP detection; 25 nM GST-RIPK1 kinase domain (residues 1-327), 300 μM ATP, dephosphorylated-MBP substrate; 30 min pre-incubation, 150 min reaction
# Protocol: RIPK1-ADP-Glo Enzymatic Assay
# The enzymatic activity of RIPK1 is measured using an assay derived from ADP-Glo kit (Promega™), which provides a luminescent-based ADP detection system. Specifically, the ADP generated by RIPK1 kinase is proportionally detected as luminescent signals in a homogenous fashion. In this context, the assessment of the inhibitory effect of small molecules (EC50) is measured by the effectiveness of the compounds to inhibit the ATP to ADP conversion by RIPK1.
# In this assay, the potency (EC50) of each compound was determined from a ten-point (1:3 serial dilution; top compound concentration of 100000 nM) titration curve using the following outlined procedure. To each well of a white ProxiPlus 384 well-plate, 30 nL of compound (1% DMSO in final assay volume of 3 μL) was dispensed, followed by the addition of 2 μL of 1×assay buffer (25 mM Hepes 7.3, 20 mM MgCl2, 50 mM NaCl, 1 mM DTT, 0.005% Tween20, and 0.02% BSA) containing 37.5 nM of GST-RIPK1 (recombinant GST-RIPK1 kinase domain (residues 1-327) enzyme produced from baculovirus-transfected Sf21 cells: MW=62 kDa). Plates were placed in an ambient temperature humidified chamber for a 30 minutes pre-incubation with compound. Subsequently, each reaction was initiated by the addition of 1 μL 1×assay buffer containing 900 μM ATP and […] dephosphorylated-MBP substrate. The final reaction in each well of 3 μL consists of 25 nM of GST-RIPK1, 300 μM ATP, and 3 μM dephosphorylated-MBP. Kinase reactions were allowed to proceed for 150 minutes prior to adding ADP-Glo reagents per Promega's outlined kit protocol. Dose-response curves were generated by plotting percent effect (% product conversion; Y-axis) vs. Log10 compound concentrations (X-axis). EC50 values were calculated using a non-linear regression, four-parameters sigmoidal dose-response model.
row,EC50,SMILES
1,47.4 nM,"O=C(N1CC2(CCCO2)C1)N1N=CC[C@H]1c1cc(F)cc(F)c1 [Example 1.26, (S)-(5-(3,5-difluorophenyl)-4,5-dihydro-1H-pyrazol-1-yl)(5-oxa-2-azaspiro[3.4]octan-2-yl)methanone]"
2,988 nM,"O=C(N1CC(O)(C(F)(F)F)C1)N1N=CC[C@H]1c1cc(F)cc(F)c1 [Example 1.27, (S)-(5-(3,5-difluorophenyl)-4,5-dihydro-1H-pyrazol-1-yl)(3-hydroxy-3-(trifluoromethyl)azetidin-1-yl)methanone]"
3,3590 nM,"CC1(O)CN(C(=O)N2N=CC[C@H]2c2cc(F)cc(F)c2)C1 [Example 1.28, (S)-(5-(3,5-difluorophenyl)-4,5-dihydro-1H-pyrazol-1-yl)(3-hydroxy-3-methylazetidin-1-yl)methanone]"
4,61.7 nM,"CC1(F)CN(C(=O)N2N=CC[C@H]2c2cc(F)cc(F)c2)C1 [Example 1.29, (S)-(5-(3,5-difluorophenyl)-4,5-dihydro-1H-pyrazol-1-yl)(3-fluoro-3-methylazetidin-1-yl)methanone]"
5,2290 nM,"CC(C)C1(O)CN(C(=O)N2N=CC[C@H]2c2cc(F)cc(F)c2)C1 [Example 1.30, (S)-(5-(3,5-difluorophenyl)-4,5-dihydro-1H-pyrazol-1-yl)(3-hydroxy-3-isopropylazetidin-1-yl)methanone]"
6,38.4 nM,"O=C(N1CC(F)C1)N1N=CC[C@H]1c1cc(F)cc(F)c1 [Example 1.31, (S)-(5-(3,5-difluorophenyl)-4,5-dihydro-1H-pyrazol-1-yl)(3-fluoroazetidin-1-yl)methanone]"
7,17.2 nM,"O=C(N1CC(F)(F)C1)N1N=CC[C@H]1c1cc(F)cc(F)c1 [Example 1.32, (S)-(3,3-difluoroazetidin-1-yl)(5-(3,5-difluorophenyl)-4,5-dihydro-1H-pyrazol-1-yl)methanone]"
8,18.3 nM,"O=C(N1CC(Cl)C1)N1N=CC[C@H]1c1cc(F)cc(F)c1 [Example 1.33, (S)-(3-chloroazetidin-1-yl)(5-(3,5-difluorophenyl)-4,5-dihydro-1H-pyrazol-1-yl)methanone]"
9,2460 nM,"O=C(N1CC(O)(C2CC2)C1)N1N=CC[C@H]1c1cc(F)cc(F)c1 [Example 1.34, (S)-(3-cyclopropyl-3-hydroxyazetidin-1-yl)(5-(3,5-difluorophenyl)-4,5-dihydro-1H-pyrazol-1-yl)methanone]"
10,5150 nM,"O=C(N1CC2(C1)CN(c1cnccn1)C2)N1N=CC[C@H]1c1cc(F)cc(F)c1 [Example 1.35, (S)-(5-(3,5-difluorophenyl)-4,5-dihydro-1H-pyrazol-1-yl)(6-(pyrazin-2-yl)-2,6-diazaspiro[3.3]heptan-2-yl)methanone]"
11,62.3 nM,"CC1(C#N)CN(C(=O)N2N=CC[C@H]2c2cc(F)cc(F)c2)C1 [Example 1.36, (S)-1-(5-(3,5-difluorophenyl)-4,5-dihydro-1H-pyrazole-1-carbonyl)-3-methylazetidine-3-carbonitrile]"
12,22.6 nM,"O=C(N1CC(C(F)F)C1)N1N=CC[C@H]1c1cc(F)cc(F)c1 [Example 1.37, (S)-(3-(difluoromethyl)azetidin-1-yl)(5-(3,5-difluorophenyl)-4,5-dihydro-1H-pyrazol-1-yl)methanone]"
13,105 nM,"COCCC1CN(C(=O)N2N=CC[C@H]2c2cc(F)cc(F)c2)C1 [Example 1.38, (S)-(5-(3,5-difluorophenyl)-4,5-dihydro-1H-pyrazol-1-yl)(3-(2-methoxyethyl)azetidin-1-yl)methanone]"
14,648 nM,"N#CC1(c2ccccc2)CN(C(=O)N2N=CC[C@H]2c2cc(F)cc(F)c2)C1 [Example 1.39, (S)-1-(5-(3,5-difluorophenyl)-4,5-dihydro-1H-pyrazole-1-carbonyl)-3-phenylazetidine-3-carbonitrile]"
15,26 nM,"CC1CN(C(=O)N2N=CC[C@H]2c2cc(F)cc(F)c2)C1 [Example 1.40, (S)-(5-(3,5-difluorophenyl)-4,5-dihydro-1H-pyrazol-1-yl)(3-methylazetidin-1-yl)methanone]"
16,6.6 nM,"O=C(N1CC(c2ccccc2)C1)N1N=CC[C@H]1c1cc(F)cc(F)c1 [Example 1.41, (S)-(5-(3,5-difluorophenyl)-4,5-dihydro-1H-pyrazol-1-yl)(3-phenylazetidin-1-yl)methanone]"
17,28.6 nM,"O=C(N1CC(c2cccnc2)C1)N1N=CC[C@H]1c1cc(F)cc(F)c1 [Example 1.42, (S)-(5-(3,5-difluorophenyl)-4,5-dihydro-1H-pyrazol-1-yl)(3-(pyridin-3-yl)azetidin-1-yl)methanone, TFA salt]"
18,775 nM,"O=C(N1CC(F)(c2ccccc2)C1)N1N=CC[C@H]1c1cc(F)cc(F)c1 [Example 1.43, (S)-(5-(3,5-difluorophenyl)-4,5-dihydro-1H-pyrazol-1-yl)(3-fluoro-3-phenylazetidin-1-yl)methanone]"
19,811 nM,"O=C(N1CC(O)(c2ccccc2)C1)N1N=CC[C@H]1c1cc(F)cc(F)c1 [Example 1.44, (S)-(5-(3,5-difluorophenyl)-4,5-dihydro-1H-pyrazol-1-yl)(3-hydroxy-3-phenylazetidin-1-yl)methanone]"
20,98.5 nM,"COC1(C)CN(C(=O)N2N=CC[C@H]2c2cc(F)cc(F)c2)C1 [Example 1.45, (S)-(5-(3,5-difluorophenyl)-4,5-dihydro-1H-pyrazol-1-yl)(3-methoxy-3-methylazetidin-1-yl)methanone]"
21,233 nM,"COC1(C(F)(F)F)CN(C(=O)N2N=CC[C@H]2c2cc(F)cc(F)c2)C1 [Example 1.46, (S)-(5-(3,5-difluorophenyl)-4,5-dihydro-1H-pyrazol-1-yl)(3-methoxy-3-(trifluoromethyl)azetidin-1-yl)methanone]"
22,17.1 nM,"CCOc1cccc(CC2CN(C(=O)N3N=CC[C@H]3c3cc(F)cc(F)c3)C2)c1 [Example 1.48, (S)-(5-(3,5-difluorophenyl)-4,5-dihydro-1H-pyrazol-1-yl)(3-(3-ethoxybenzyl)azetidin-1-yl)methanone]"
23,11.7 nM,"Cc1ccccc1OC1CN(C(=O)N2N=CC[C@H]2c2cc(F)cc(F)c2)C1 [Example 1.49, (S)-(5-(3,5-difluorophenyl)-4,5-dihydro-1H-pyrazol-1-yl)(3-(o-tolyloxy)azetidin-1-yl)methanone]"
24,7 nM,"O=C(N1CC(Oc2ccc(F)cc2)C1)N1N=CC[C@H]1c1cc(F)cc(F)c1 [Example 1.50, (S)-(5-(3,5-difluorophenyl)-4,5-dihydro-1H-pyrazol-1-yl)(3-(4-fluorophenoxy)azetidin-1-yl)methanone]"
25,1110 nM,"O=C(N1CC(c2ccncn2)C1)N1N=CC[C@H]1c1cc(F)cc(F)c1 [Example 1.51, (S)-(5-(3,5-difluorophenyl)-4,5-dihydro-1H-pyrazol-1-yl)(3-(pyrimidin-4-yl)azetidin-1-yl)methanone]"
26,23.9 nM,"O=C(N1CC(OCc2ncc(Br)s2)C1)N1N=CC[C@H]1c1cc(F)cc(F)c1 [Example 1.52, (S)-(3-((5-bromothiazol-2-yl)methoxy)azetidin-1-yl)(5-(3,5-difluorophenyl)-4,5-dihydro-1H-pyrazol-1-yl)methanone]"
27,530 nM,"O=C(N1CC2(CCCOC2)C1)N1N=CC[C@H]1c1cc(F)cc(F)c1 [Example 1.53, (S)-(5-(3,5-difluorophenyl)-4,5-dihydro-1H-pyrazol-1-yl)(6-oxa-2-azaspiro[3.5]nonan-2-yl)methanone]"
28,4230 nM,"CS(=O)(=O)C1CN(C(=O)N2N=CC[C@H]2c2cc(F)cc(F)c2)C1 [Example 1.54, (S)-(5-(3,5-difluorophenyl)-4,5-dihydro-1H-pyrazol-1-yl)(3-(methylsulfonyl)azetidin-1-yl)methanone]"
29,175 nM,"Cc1noc(C2CN(C(=O)N3N=CC[C@H]3c3cc(F)cc(F)c3)C2)n1 [Example 1.55, (S)-(5-(3,5-difluorophenyl)-4,5-dihydro-1H-pyrazol-1-yl)(3-(3-methyl-1,2,4-oxadiazol-5-yl)azetidin-1-yl)methanone]"
30,12.4 nM,"O=C(N1CC(S(=O)(=O)c2ccc(Br)cc2)C1)N1N=CC[C@H]1c1cc(F)cc(F)c1 [Example 1.57, (S)-(3-((4-bromophenyl)sulfonyl)azetidin-1-yl)(5-(3,5-difluorophenyl)-4,5-dihydro-1H-pyrazol-1-yl)methanone]"
